Assay results from article PMC12006171, “Marsupial cathelicidins: characterization, antimicrobial activity and evolution in this unique mammalian lineage” (Frontiers in Immunology, 2025).
≈ marks a conversion by molar mass, not a printed value. Where two headings read alike, the source gives them in different places. Where a SMILES comes first, the peptide text is derived from it.

Key:
[1] = test system: Tasmanian devil facial tumor disease; conditions: cited from earlier work
Excerpt: Many marsupial and monotreme cathelicidins were closely related to the classic cathelicidins found in eutherians. These cathelicidins sit within clade II in the phylogenetic tree, sister to eutherians but were not orthologous ( Figure 3 ). Classic marsupial cathelicidins were encoded in cluster A in the genome of all marsupials and monotremes studied, syntenic to the single cathelicidin gene/cluster in eutherians ( Figure 2 ). Many of these were antimicrobial and bactericidal, with MICs equal to or less than eutherian peptides such as cow BMAP-27 and -28 ([87]) and human LL-37, including again ...

[2] = test system: six bacteria (S. aureus, E. coli, P. aeruginosa; ATCC and clinical isolate); parameters: method as in 4 sources, ref Peel et al 2016 ||| ref Peel et al 2021 ||| ref Wang et al 2011 ||| ref Peel et al 2017; conditions: mature peptide; Y/N summary from earlier study; ref Peel et al 2016; cited from earlier work
[3] = test system: three fungi (Candida krusei, Candida parapsilosis, Candida albicans); parameters: method as in 4 sources, ref Peel et al 2016 ||| ref Peel et al 2021 ||| ref Wang et al 2011 ||| ref Peel et al 2017; conditions: mature peptide; Y/N summary from earlier study; ref Peel et al 2016; cited from earlier work
[4] = test system: E. coli ATCC 25922; experiment: Killing kinetics (time kill assay); type: cell-based, Escherichia coli; conditions: MHB, 35°C, sampled 1-24 hours, n = 2
Experimental: The killing kinetics assay was conducted using mid-logarithmic phase cultures of E. coli ATCC 25922 and S. aureus ATCC 29213 in MHB. Cultures were adjusted to a 0.5 McFarland standard, diluted in MHB, and then 100µL was added to each culture tube containing 10mL pre-warmed MHB to give a final inoculum concentration of 5 x 10^5 CFU/mL. A sterility control of 100uL MHB, growth control (no cathelicidin), and vehicle control (DMSO) were also included. Furthermore, 10uL was immediately removed from the growth control tube, diluted 1/1000 in saline and 100µL plated onto MHA in duplicate to confirm inoculum density. To establish colony counts from 0 hours of cathelicidin treatment, 200µL was removed from each culture tube and serially diluted ten-fold in saline from 10^0 to […] in a total volume of 200µL. Then, 10µL of each dilution was spotted onto MHA in duplicate, which were incubated at 35°C for 24 hours.
All culture tubes were then incubated at 35°C static. At 1, 2, 4, 6, 8, 10, 12, and 24 hours post-cathelicidin treatment, 200µL was removed from each culture tube for dilution and plated on MHA as described above. […] Counts of duplicates were averaged, and the log10 CFU/mL graphed against time. This was used as input for one-way ANOVA (p < 0.05) followed by Dunnett’s post hoc test.

[5] = test system: six bacteria (S. aureus, E. coli, P. aeruginosa; ATCC and clinical isolate); type: cell-based
In short: (§1)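 Each isolate was exposed to twofold peptide dilutions (final 64-0.125μg/mL) in Mueller Hinton broth, optionally supplemented with calcium and magnesium or 10% lysed horse blood. The MIC was taken as the lowest concentration lacking visible growth after 20–24 hours at 35°C.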

[6] = test system: Pseudomonas aeruginosa clinical isolate - animal; experiment: microbe, parasite or virus in culture; type: cell-based
In short: as §1

[7] = test system: Staphylococcus aureus ATCC 29213; experiment: microbe, parasite or virus in culture; type: cell-based; conditions: ATCC 29213; read-out: MIC S. aureus ATCC
In short: as §1

[8] = test system: Staphylococcus aureus clinical isolate - animal; experiment: microbe, parasite or virus in culture; type: cell-based; conditions: clinical isolate - animal; read-out: MIC S. aureus
In short: as §1

[9] = test system: Escherichia coli clinical isolate - animal; experiment: microbe, parasite or virus in culture; type: cell-based
In short: as §1

[10] = test system: Escherichia coli ATCC 25922; experiment: microbe, parasite or virus in culture; type: cell-based
In short: as §1

[11] = test system: Pseudomonas aeruginosa ATCC 27853; experiment: microbe, parasite or virus in culture; type: cell-based
In short: as §1

[12] = test system: Candida albicans Clinical isolate - human; experiment: microbe, parasite or virus in culture; type: cell-based; conditions: Clinical isolate - human; read-out: MIC C. albicans
In short: (§2)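 MIC defined as lowest peptide level preventing visible growth after 20–24 h at 35°C. Candida tested in RPMI-1640 MOPS; bacteria in Mueller Hinton broth, optionally with 10% lysed horse blood and/or divalent cations. Final peptide range 64-0.125 μg/mL, starting inoculum 5 x 10^5 CFU/mL, per CLSI M07-A/M26A.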

[13] = test system: Streptococcus agalactiae Clinical isolate - animal; experiment: microbe, parasite or virus in culture; type: cell-based; conditions: clinical isolate - animal; read-out: MIC S. agalactiae
In short: as §2

[14] = test system: Candida parapsilosis ATCC 22019; experiment: microbe, parasite or virus in culture; type: cell-based; conditions: ATCC 22019
In short: as §2

[15] = test system: Streptococcus agalactiae ATCC 12386; experiment: microbe, parasite or virus in culture; type: cell-based; conditions: ATCC 12386; read-out: MIC S. agalactiae ATCC
In short: as §2

[16] = test system: Streptococcus pneumoniae ATCC 49619; experiment: microbe, parasite or virus in culture; type: cell-based; conditions: ATCC 49619; read-out: MIC S. pneumoniae ATCC
In short: as §2

[17] = test system: Candida krusei ATCC 6258; experiment: microbe, parasite or virus in culture; type: cell-based; conditions: ATCC 6258; read-out: MIC C. krusei ATCC
In short: as §2

[18] = clinical isolate, MHB without cations, 5 x 10^5 CFU/mL, 35°C 20–24 hours, duplicate
[19] = clinical isolate, superscript value, cation-adjusted Mueller Hinton broth
[20] = clinical isolate, value in brackets, 99.9% reduction in CFU/mL
[21] = MHB without cations, 5 x 10^5 CFU/mL, 35°C 20–24 hours, duplicate
[22] = superscript value, cation-adjusted Mueller Hinton broth
[23] = value in brackets, 99.9% reduction in CFU/mL

Molecule: KIKRIGLGGFIGRILDRIRRLG [SahaCath5, Tasmanian devil cathelicidin, reference compound]
- Toxicity to Tasmanian devil facial tumor disease [1]: toxic to Tasmanian devil facial tumor disease
- Antibacterial (MIC <64ug/mL) [2]: Y (Peel et al 2016) (Antibacterial (MIC <64ug/mL))
- Antifungal (MIC <64ug/mL) [3]: Y (Peel et al 2016) (Antifungal (MIC <64ug/mL))

Molecule: CC[C@H](C)[C@H](NC(=O)[C@H](CCCCN)NC(=O)[C@@H](NC(=O)[C@H](CC(N)=O)NC(=O)[C@H](CCCCN)NC(=O)[C@H](CC(C)C)NC(=O)[C@H](CCCNC(=N)N)NC(=O)[C@H](CCCCN)NC(=O)[C@H](CCCCN)NC(=O)[C@@H](NC(=O)[C@H](CO)NC(=O)[C@H](CCCCN)NC(=O)CNC(=O)[C@H](CC(C)C)NC(=O)[C@H](CCCCN)NC(=O)[C@H](CCCCN)NC(=O)[C@H](CC(C)C)NC(=O)[C@H](CCCCN)NC(=O)[C@H](CCCCN)NC(=O)[C@H](CCCNC(=N)N)NC(=O)[C@H](CC(C)C)NC(=O)CNC(=O)[C@H](CCCNC(=N)N)NC(=O)[C@@H](N)CO)[C@@H](C)CC)[C@@H](C)CC)C(=O)NCC(=O)N[C@@H](Cc1ccc(O)cc1)C(=O)N[C@@H](CO)C(=O)N[C@H](C(=O)N1CCC[C@H]1C(=O)N[C@@H](Cc1ccccc1)C(=O)N1CCC[C@H]1C(=O)NCC(=O)O)[C@@H](C)CC [PspeCath1] (H-SRGLRKKLKKLGKSIKKRLKNIKIGYSIPFPG-OH; N-terminus and C-terminus assumed)
- Number of hours to cause a significant reduction in log CFU/mL of E. coli ATCC (p < 0.05) ([4]; 0.5x MIC): 2 hours
- Number of hours to cause a significant reduction in log CFU/mL of E. coli ATCC (p < 0.05) ([4]; 2x MIC): 1 hours
- Number of hours to cause a significant reduction in log CFU/mL of E. coli ATCC (p < 0.05) ([4]; MIC): 2 hours
- MIC against at least one strain [5]: 4 µg/mL (≈ 1.09 µM)
- MBC P. aeruginosa ([6]; clinical isolate - animal): 4.3 µM
- MIC ([6]; clinical isolate - animal, read-out: MIC P. aeruginosa): 2.1 µM (≈ 7.67 µg/mL)
- MIC ([6]; clinical isolate - animal, read-out: MIC in the presence of cations P. aeruginosa): 2.1 µM
- MIC P. aeruginosa [6, 18]: 8 µg/mL (≈ 2.19 µM)
- MIC in the presence of cations P. aeruginosa [6, 19]: 8 µg/mL
- MBC P. aeruginosa [6, 20]: 16 µg/mL
- MIC [7]: >17.5 µM
- MIC [8]: >17.5 µM
- MBC E. coli ([9]; clinical isolate - animal): 1 µM
- MIC ([9]; clinical isolate - animal): 1 µM (≈ 3.65 µg/mL)
- MIC in the presence of cations E. coli ([9]; clinical isolate - animal): 0.5 µM
- MIC E. coli [9, 18]: 4 µg/mL (≈ 1.09 µM)
- MIC in the presence of cations E. coli [9, 19]: 2 µg/mL
- MBC E. coli [9, 20]: 4 µg/mL
- MBC E. coli ATCC ([10]; ATCC 25922): 2.1 µM
- MIC ([10]; ATCC 25922, read-out: MIC E. coli ATCC): 1 µM (≈ 3.65 µg/mL)
- MIC ([10]; ATCC 25922, read-out: MIC in the presence of cations E. coli ATCC): 1 µM
- MIC E. coli ATCC [10, 21]: 4 µg/mL (≈ 1.09 µM)
- MIC in the presence of cations E. coli ATCC [10, 22]: 4 µg/mL
- MBC E. coli ATCC [10, 23]: 8 µg/mL
- MBC P. aeruginosa ATCC ([11]; ATCC 27853): 2.1 (2.1)^2.1 µM
- MIC P. aeruginosa ATCC ([11]; ATCC 27853): 2.1 (2.1)^2.1 µM
- MIC in the presence of cations P. aeruginosa ATCC ([11]; ATCC 27853): 2.1 (2.1)^2.1 µM
- MIC P. aeruginosa ATCC [11, 21]: 8 (8)^8 µg/mL
- MIC in the presence of cations P. aeruginosa ATCC [11, 22]: 8 (8)^8 µg/mL
- MBC P. aeruginosa ATCC [11, 23]: 8 (8)^8 µg/mL
- MIC [12]: >17.5 µM
- MIC [13]: >17.5 µM
- MFC C. parapsilosis ATCC [14]: > 17.5 µM
- MIC ([14]; read-out: MIC C. parapsilosis ATCC): 8.75 µM (≈ 32 µg/mL)
- MIC [15]: >17.5 µM
- MIC [16]: >17.5 µM
- MIC [17]: >17.5 µM

Molecule: KRIRFFERIRDRLRDLGNRIKNRIRDFFS [SahaCath6, Tasmanian devil cathelicidin, reference compound]
- Toxicity to Tasmanian devil facial tumor disease [1]: toxic to Tasmanian devil facial tumor disease
- Antibacterial (MIC <64ug/mL) [2]: Y (Peel et al 2016) (Antibacterial (MIC <64ug/mL))
- Antifungal (MIC <64ug/mL) [3]: Y (Peel et al 2016) (Antifungal (MIC <64ug/mL))
